Structures can show the parent of a compound that is named as a salt.

One series concerns isolated hamster ureter. Description: Inhibition of phenylephrine-induced contraction of isolated hamster ureter (organ bath). As to conditions: for pA2: against phenylephrine concentration-response curve.
For series [1] the following is noted: anesthetized dogs; compared with the compound of general formula (I); cited from earlier work.

As to `COc1ccccc1N1CCN(CCN2C(=O)CC3(CCCC3)CC2=O)CC1` [BMY-7378], in the series on isolated hamster ureter, the pA2 is listed as 5.75. With `C[C@H](Cc1cc2c(c(C(N)=O)c1)N(CCCO)CC2)NCCOc1ccccc1OCC(F)(F)F` [Compound 1, (−)-1-(3-hydroxypropyl)-5-((2R)-2-{[2-((2-[(2,2,2-trifluoroethyl)oxy]phenyl)oxy)ethyl]amino}propyl)-2,3-dihydro-1H-indole-7-carboxamide], the “inhibitory effect against phenylephrine induced ureteral contraction (shift of concentration-response curve)” value in the series on isolated hamster ureter (3×10^−10, 1×10^−9, 3×10^−9 mol/L, about 30 min pretreatment) is “caused concentration-dependently a parallel rightward shift of the concentration-response curve for phenylephrine”. In the series on isolated hamster ureter, this compound showed a pA2 of 9.44.

In turn, `COc1ccccc1N1CCN(CC(O)COc2cccc3ccccc23)CC1` (stereo not drawn) [naftopidil] registered a pA2 in the series with isolated hamster ureter of 6.54. As for `CCOc1ccccc1OCCN[C@H](C)Cc1ccc(OC)c(S(N)(=O)=O)c1` [tamsulosin hydrochloride], the “decrease of blood pressure” value in series [1] is recorded as “decreases blood pressure more strongly than the compound represented by the above general formula (I)”. In the series with isolated hamster ureter, the pA2 worked out at 9.85.

What is called pA2 is a measure of antagonist potency on a negative log scale. A low value points to a weaker antagonist.

Source of the values: US20090163571A1, “PHARMACEUTICAL FOR USE IN THE TREATMENT OF URETEROLITHIASIS” (KISSEI PHARMACEUTICAL CO., LTD, priority 2005, published 2009).
